The source of these data is paper PMC9268013, “Design, Synthesis, and Biological Evaluation of N14-Amino Acid-Substituted Tetrandrine Derivatives as Potential Antitumor Agents against Human Colorectal Cancer” (Molecules, 2022).

In general, solubility refers to the concentration that dissolves in the medium under given conditions. Read a high solubility as much dissolved substance.

Data set [1] relates to human lung cancer cells (A549). Briefly: MTT antiproliferative assay, A549. The class given is cell-based. The following applies: Homo sapiens, A549, 72 h. Here is the method:
(§1) Human lung cancer cell (A549,), human umbilical vein endothelial cells (HUVECs,), human colon cancer cell lines (HCT-15), human breast cancer cells (MCF-7), human liver cancer cells (HepG2), human pancreatic cancer cells (BxPC-3), and human hepatic cell line (L-02) were obtained from the Sichuan University. A549, HUVECs, and L-02 were cultured in DMEM medium (high glucose, HyClone, GE Healthcare, Sydney, Australia). Human colon cancer cell lines HCT-15, human pancreatic cancer cells […] BxPC-3 were cultured in RPMI-1640. Human breast cancer cells MCF-7 and human liver cancer cells HepG2 were cultured in MEM medium. All the mediums, including 10% fetal bovine serum (FBS, HyClone, GE Healthcare, Sydney, Australia) and 1% ampicillin/streptomycin, were used to culture the above cells at 37 °C in a humidified atmosphere (5% CO2 and 95% air).
(§2) The antiproliferative activity of the title compounds was determined using the MTT (3-(4,5-dimethylthiazol-2-yl)-2,5-diphenyltetrazolium bromide, Sigma-Aldrich, Saint Louis, MO, USA) assay on different cells. Cells lines were seeded into 96-well plates at a density of 2000 to 6000 cells/well. DMSO was used to dissolve the test compounds, and TET was used as a positive control. After 24 h, the test compounds were added at different concentrations (0.625, 1.25, 2.5, 5, 10, and 20 μM) and incubated at 37 °C for 72 h. MTT was added to each well at a final concentration of 0.5 mg/mL and incubated at 37 °C for 4 h. Then, 150 μL of DMSO was added to each well to dissolve the formazan crystals. The absorbance was measured at 570 nm by a microplate reader (ELX800UV, Bio-Tek, Windoski, VT, USA). All measurements were repeated at least three times under the same conditions. Graphpad Prism 8.0 was used to calculate the IC50 values.
On the technique in general: Tetrazolium dyes change colour on reduction, which living cells bring about.

Data set [2] has as its system human colon cancer cells (HCT-15). Briefly: MTT antiproliferative assay, HCT-15. The class given is cell-based. To be noted: for IC50: Homo sapiens, MTT, 72 h, HCT-15. On the procedure: as §1, §2
The subject of data set [3] is human liver cancer cells (HepG2). Nature of the data set: MTT antiproliferative assay, HepG2. It counts as cell-based. To be noted: Homo sapiens, HepG2, 72 h. On the procedure: as §1, §2
The subject of data set [4] is human pancreatic cancer cells (BxPC-3). Briefly: MTT antiproliferative assay, BxPC-3. To be noted: Homo sapiens, BXPC-3, 72 h. The class given is cell-based. Here is the method: as §1, §2
In data set [5] the test system is human breast cancer cells (MCF-7). Nature of the data set: MTT antiproliferative assay, MCF-7. The class given is cell-based. To be noted: Homo sapiens, MCF7, 72 h. On the procedure:
as §1, §2

Data set [6] has as its system human umbilical vein endothelial cells (HUVEC). Nature of the data set: MTT antiproliferative assay, HUVEC. It counts as cell-based. The following applies: 72 h. On the procedure:
as §1, §2

Data set [7] has as its system human normal hepatocyte cells (L-02). Nature of the data set: MTT toxicity assay, normal hepatocytes L-02. The class given is cell-based. The following applies: 72 h, normal hepatocyte L-02 (toxicity), read-out: Antiproliferative Activity (IC50/μM) L-02. On the procedure:
as §1, §2

Data set [8] is described as follows: Aqueous solubility determination by HPLC. The class given is physicochemical. To be noted: neutral water. On the procedure:
Briefly, each tested compound (10 mg) was dissolved in 10 mL of CH3OH, and the standard solution (0.5 mL) was used to determine the wavelength of maximum absorbance by HPLC. The solution was diluted as necessary, and the solubility was determined by linear regression with R^2 > 0.999. Each tested compound (5 mg) was ultrasound dissolved in 3 mL of pure water for 1 h at room temperature, and the mixture was then […] at 3000 rpm for 15 min. The saturated supernatants were determined by HPLC at the wavelength of the maximum absorption, and the absorbances were obtained. The solubility was calculated according to the standard curve.

A further data set deals with HCT-15 cells. Briefly: Flow cytometry Annexin V-FITC/PI apoptosis analysis. The following applies: HCT-15, TET treatment groups (1.25, 2.5, 5 μM), 48 h. It counts as cell-based, human. On the procedure: HCT-15 cells were cultured in complete medium in six-well plates for 24 h, and […]. 2.5, 5 μM of 16 was added in triplicate for 48 h incubation. The cells were digested with trypsin without EDTA, washed twice with cold PBS, and resuspended in 500 μL binding buffer. The cell suspension was stained successively with 5 μL Annexin V-FITC and 5 μL PI (Keygen Biotech, Nanjing, China), and cultured for 15 min and 5 min in total dark, respectively. Afterwards, the percentages of apoptotic cells were determined by a flow cytometry. Data were analyzed by FlowJo software (Version 10, FlowJo, LLC, Ashland, OR, USA).

For the molecule `COc1cc(NC(=O)CNC(=O)OC(C)(C)C)c2cc1Oc1ccc(cc1)C[C@H]1c3cc(c(OC)cc3CCN1C)Oc1c(OC)c(OC)cc3c1[C@H](C2)N(C)CC3` [Compound 3, 14-N-(Boc-L-glycine)-tetrandrine], the IC50 worked out at 2.15 ± 0.17 µM in data set [1]; 2.42 ± 0.06 µM in data set [2]; 1.94 ± 0.27 µM in data set [3]; 2.55 ± 0.03 µM in data set [4]; 2.91 ± 0.17 µM in data set [5]; 1.68 ± 0.21 µM in data set [6]. Also, the IC50 in data set [7] amounted to 8.59 ± 0.13 µM. For the same molecule, the “Improvement of antiproliferative activity compared with TET” value in data set [2] (HCT-15 cells, vs TET (IC50 = 6.12 μM)) is on record as “about 2 fold”. Moreover, the “Increase of aqueous solubility compared to TET” value in data set [8] (vs TET) was “approximately 16 fold”.

As for `COc1ccc2cc1Oc1ccc(cc1)C[C@H]1c3cc(c(OC)cc3CCN1C)Oc1c(OC)c(OC)cc3c1[C@H](C2)N(C)CC3` [TET, tetrandrine], the IC50 came to 6.39 ± 0.83 µM in data set [1]; 6.12 ± 0.51 µM in data set [2]; 3.25 ± 0.11 µM in data set [3]; 7.6 ± 0.16 µM in data set [4]; 3.9 ± 0.47 µM in data set [5]; 3.62 ± 0.02 µM in [6]. The IC50 in data set [7] worked out at 16 ± 1.18 µM. Besides, the solubility at 1 h in data set [8] (pure water, thermodynamic from solid, room temperature, HPLC) was less than 30 µg/mL. Further, the “Percentage of apoptotic cells” value in the data set on HCT-15 cells was “lower than 14%”.

Take `COc1cc(NC(=O)[C@H]2CCCN2C(=O)OC(C)(C)C)c2cc1Oc1ccc(cc1)C[C@H]1c3cc(c(OC)cc3CCN1C)Oc1c(OC)c(OC)cc3c1[C@H](C2)N(C)CC3` [Compound 7, 14-N-(Boc-L-proline)-tetrandrine]: the IC50 in [1] came out at 6.4 ± 0.36 µM; in [2] it was 1.15 ± 0.17 µM; in data set [3] it was 3.5 ± 1.37 µM; in data set [4] it was 3.1 ± 0.26 µM; in data set [5] it was 5.71 ± 0.29 µM; in data set [6] it was 3.49 ± 0.31 µM. For the same molecule, in data set [7], the IC50 turned out to be 17.5 ± 0.21 µM.
